Values of other authors as cited in patent publication US20110136741A1 (priority 2008, published 2011).

How the values were obtained:
subtype sst2 receptors = subtype sst2 receptors (Homo sapiens, UniProt P30874)
hsst2 = hsst2 (Homo sapiens, UniProt P30874)
hsst2, sequence (P30874 whole entry): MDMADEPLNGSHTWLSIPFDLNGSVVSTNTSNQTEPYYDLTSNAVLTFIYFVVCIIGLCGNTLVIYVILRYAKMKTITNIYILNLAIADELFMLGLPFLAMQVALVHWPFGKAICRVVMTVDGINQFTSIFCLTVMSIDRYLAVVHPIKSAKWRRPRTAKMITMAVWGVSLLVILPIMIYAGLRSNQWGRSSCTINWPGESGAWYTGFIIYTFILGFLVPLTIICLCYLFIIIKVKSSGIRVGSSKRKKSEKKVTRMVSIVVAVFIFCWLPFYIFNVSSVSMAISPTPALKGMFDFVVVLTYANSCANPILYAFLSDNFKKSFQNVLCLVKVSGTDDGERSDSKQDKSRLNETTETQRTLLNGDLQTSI

subtype sst2 receptors, sequence (P30874 whole entry): as above

For `C[C@@H](O)[C@@H]1NC(=O)[C@H](CCCCN)NC(=O)[C@@H](Cc2c[nH]c3ccccc23)NC(=O)[C@H](Cc2ccccc2)NC(=O)[C@@H](NC(=O)[C@H](N)Cc2ccccc2)CSSC[C@@H](C(=O)N[C@H](CO)[C@@H](C)O)NC1=O` [octreotide], the “affinity for subtype sst2 receptors” value (subtype sst2 receptors) is listed as “very high affinity” and the “activity towards hsst2 receptor” value (hsst2) is listed as “very active”.
For `CC(O)[C@@H]1NC(=O)[C@H](CCCCN)NC(=O)[C@H](Cc2c[nH]c3ccccc23)NC(=O)[C@H](Cc2ccccc2)NC(=O)[C@H](Cc2ccccc2)NC(=O)[C@H](CC(N)=O)NC(=O)[C@H](CCCCN)NC(=O)[C@@H](NC(=O)CNC(=O)[C@H](C)N)CSSC[C@@H](C(=O)O)NC(=O)[C@H](CO)NC(=O)[C@H]([C@@H](C)O)NC(=O)[C@H](Cc2ccccc2)NC1=O` (stereo partly drawn) [somatostatin, Somatostatin-14], the half-life in blood is listed as under 3 min.
